“And” between values parts separate entries of the source, which are not always exact repeats. Equal values may be shown once. Read-outs that look alike come from different tables or passages of the source.
Experiments:
[1] = target: SARS-CoV-2 NSP3 macrodomain (Mac1) (Severe acute respiratory syndrome coronavirus 2, UniProt P0DTD1); experiment: biochemical; type: binding; conditions: for SARS CoV-2 macrodomain HTRF assay: Hillslope: dose-response fit
[2] = target: SARS-CoV-2 NSP3 macrodomain (Mac1), P43 crystal form (Severe acute respiratory syndrome coronavirus 2, UniProt P0DTD1); type: binding; conditions: for 1-BDC: PanDDA background density correction; for Total number of conformations: ligand conformations modeled in Mac1 crystal structure; for X-ray crystallography: Binding site: site where the ligand is bound in the X-ray crystal structure
[3] = crystal soak 10 mM, P43 crystals
[4] = occupancy estimate from PanDDA BDC
[5] = preliminary screen, compound at 200 μM, mean of 3-4 technical replicates, read-out: % competition in HTRF assay
[6] = crystal soak concentration 10 mM, event 1
[7] = crystal soak concentration 10 mM, P43 crystals
[8] = crystal soak concentration 10 mM
[9] = occupancy estimate from PanDDA 1-BDC
[10] = SARS CoV-2 macrodomain HTRF assay, dose-response
[11] = Single dose, concentration 200 μM, read-out: Average % competition
[12] = X-ray crystal structure determined (TRUE)
[13] = crystal soak, soak concentration 10 mM
[14] = crystal soak, soak concentration 10 mM, TRUE = ligand hit
[15] = site of ligand in X-ray crystal structure

| Structure (SMILES) | Hill slope ([1]; HTRF dose-response fit, Mac1) | SARS CoV-2 macrodomain HTRF assay: Hillslope [1] | Occupancy difference (refined_occupancy - 2*(1-BDC)) [2] | Refined ligand occupancy (%) [2] [%] | PanDDA run, DMSO background map: 1-BDC ([2]; event 1) | 1-BDC [2] | Hit (PanDDA run, overall) [2, 3] | Hit (PanDDA run, DMSO background map) ([2]; crystal soak 10 mM) | 1-BDC (PanDDA run, DMSO background map) ([2]; crystal soak 10 mM, event 1) | Total number of conformations [2] | 2*(1-BDC) (%) [2, 4] [%] | X-ray crystallography: Binding site [2] | inhibition at 200 µM [1, 5] [%] | 2*(1-BDC) (%) [2, 9] [%] | further results |
| --- | --- | --- | --- | --- | --- | --- | --- | --- | --- | --- | --- | --- | --- | --- | --- |
| OC1(CNc2ncnc3[nH]ccc23)CCCOC1 (stereo not shown) [AVI-4311] | 1.4 | 1.4 | 0 | 50 | 0.3 | 0.25 | TRUE | TRUE | 0.25 | 1 | 50 | Adenosine |  |  |  |
| Cc1sc2ncnc(Sc3ccccc3C(=O)O)c2c1C [AVI-317] |  |  |  |  | 0.18 | 0.15 |  |  |  | 2 |  |  | 24 | 30 | inhibition at 200 µM ([1]; Single dose, 200 μM, mean of three technical replicates, read-out: Average % competition): 24%; X-ray crystal structure ([2]; TRUE = crystal structure with ligand determined): TRUE; PanDDA run, DMSO background map: 1-BDC [2, 6]: 0.17 and 0.15; Pandda run, overall: Hit [2, 7]: TRUE; Pandda run, overall: Modeled [2, 7]: TRUE; Pandda run, overall: Modeling comment [2, 7]: Duplicate, not modeled; PanDDA run, DMSO background map: Hit [2, 8]: TRUE; PanDDA run, DMSO background map: Modeled [2, 8]: TRUE; Binding site ([2]; site of Mac1 where ligand bound in crystal structure): Adenosine |
| OCCC(CO)Nc1ncnc2[nH]ccc12 (stereo not shown) [AVI-3734] | 1.2 |  |  |  |  | 0.25 |  |  |  | 1 |  |  | 86 | 50 | Hill slope [1, 10]: 1.2; inhibition at 200 µM [1, 11]: 86%; X-ray crystal structure [2, 12]: TRUE; Pandda run, overall: Modeled [2, 13]: TRUE; Pandda run, overall: Hit [2, 14]: TRUE; Binding site [2, 15]: Adenosine; PanDDA run, DMSO background map: 1-BDC ([2]; soak concentration 10 mM): 0.25; PanDDA run, DMSO background map: Hit ([2]; soak concentration 10 mM): TRUE |
| CC(C)(O)C1N(c2ncnc3[nH]ccc23)CCC1(C)C (stereo not shown) [AVI-4126] | 1.3 | 1.3 | 8 | 40 |  | 0.16 |  |  |  | 2 | 32 | Adenosine |  |  | Phe132 loop open state [2]: TRUE; PanDDA run, DMSO background map: 1-BDC [2, 6]: 0.17 and 0.16; Pandda run, overall: Hit [2, 7]: TRUE; Pandda run, overall: Modeled [2, 7]: TRUE; Pandda run, overall: Modeling comment [2, 7]: Duplicate, not modeled; PanDDA run, DMSO background map: Hit [2, 8]: TRUE; PanDDA run, DMSO background map: Modeled [2, 8]: TRUE |
| C[C@@H]1CCN(c2ncnc3[nH]ccc23)[C@H](CO)C1 (racemic) [AVI-4064] | 1.2 | 1.2 | 0 | 38 |  | 0.19 | TRUE | TRUE | 0.19 | 2 | 38 | Adenosine |  |  |  |
| CC1(C)CCC(O)(CNc2ncnc3[nH]ccc23)CC1 [AVI-4310] | 1.3 | 1.3 |  |  | 0.17 |  | TRUE | TRUE | 0.14 |  |  |  |  |  | Modeling comment (PanDDA run, overall) ([2]; crystal soak 10 mM): Weak density, not modeled |
| OCC1CC2(CCCC2)CN1c1ncnc2[nH]ccc12 (stereo not shown) [AVI-3708] | 1.1 | 1.1 |  |  |  | 0.32 |  |  |  | 1 |  | Adenosine | 90 | 64 | inhibition at 200 µM ([1]; Single dose, concentration 200 μM, read-out: SARS CoV-2 macrodomain HTRF assay: Average % competition): 90%; Pandda run, overall: Modeled [2, 13]: TRUE; Pandda run, overall: Hit [2, 14]: TRUE; PanDDA run, DMSO background map: 1-BDC ([2]; soak concentration 10 mM): 0.32; PanDDA run, DMSO background map: Hit ([2]; soak concentration 10 mM): TRUE |
| OCC(Nc1ncnc2[nH]ccc12)C1CC1 (stereo not shown) [AVI-3651] | 1.2 |  |  |  |  | 0.18 |  |  |  | 1 |  |  | 85 | 36 | Hill slope [1, 10]: 1.2; inhibition at 200 µM [1, 11]: 85%; X-ray crystal structure [2, 12]: TRUE; Pandda run, overall: Hit [2, 3]: TRUE; Pandda run, overall: Modeled [2, 3]: TRUE; PanDDA run, DMSO background map: 1-BDC ([2]; crystal soak 10 mM): 0.18; PanDDA run, DMSO background map: Hit ([2]; crystal soak 10 mM): TRUE; Binding site [2, 15]: Adenosine |

From article doi:10.1101/2024.08.25.609621 (bioRxiv, 2024)
